In patent US20210045385A1, “PYRIDAZINONE-SUBSTITUTED KETOXIMES AS HERBICIDES” (FMC Corporation, priority 2018, published 2021):

Columns and labels:
Format in all cases: in vivo
[1] = test system: Italian ryegrass (Lolium multiflorum); assay: Test A preemergence, visual plant response rating; details: for Ryegrass, Italian plant response rating: 125 g ai/ha, preemergence, 0 to 100 scale, 0 no effect, 100 complete control; for Ryegrass, Italian plant response rating (0 to 100 scale): 500 g ai/ha Preemergence, approx. 10 days
Outline: (§1)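 Preemergence: seeds in loam/sand blend given directed soil spray of compound in non-phytotoxic solvent with surfactant. Postemergence: plants 2–10 cm, one- to two-leaf stage, sprayed with same formulation. Visual injury rated vs untreated controls after ~10 days in greenhouse, 0 (no effect) to 100 (complete control).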

[2] = test system: foxtail, giant (giant foxtail, Setaria faberii); assay: Test A preemergence, visual plant response rating; details: for Foxtail, Giant plant response rating: 125 g ai/ha, preemergence, 0 to 100 scale, 0 no effect, 100 complete control; for Foxtail, Giant plant response rating (0 to 100 scale): 500 g ai/ha Preemergence, approx. 10 days
Outline: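 Ratings 0–100 (100 = complete control), visual, vs untreated controls at ~10 days. Application pre- or postemergence; solvent mixture with surfactant; loam/sand medium.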

kochia (Kochia scoparia) [3] = assay: Test A preemergence, visual plant response rating; details: for Kochia plant response rating: 125 g ai/ha, preemergence, 0 to 100 scale, 0 no effect, 100 complete control; for Kochia plant response rating (0 to 100 scale): 500 g ai/ha Preemergence, approx. 10 days
Outline: as §1

[4] = test system: pigweed (Amaranthus retroflexus); assay: Test A preemergence, visual plant response rating; details: for Pigweed plant response rating: 125 g ai/ha, preemergence, 0 to 100 scale, 0 no effect, 100 complete control; for Pigweed plant response rating (0 to 100 scale): 500 g ai/ha Preemergence, approx. 10 days
Outline: as §1

[5] = test system: ragweed (common ragweed, Ambrosia elatior); assay: Test A preemergence, visual plant response rating; details: for Ragweed plant response rating: 125 g ai/ha, preemergence, 0 to 100 scale, 0 no effect, 100 complete control; for Ragweed plant response rating (0 to 100 scale): 500 g ai/ha Preemergence, approx. 10 days
Outline: as §1

[6] = test system: barnyardgrass (Echinochloa crus-galli); assay: Test A preemergence, visual plant response rating; details: for Barnyardgrass plant response rating: 125 g ai/ha, preemergence, 0 to 100 scale, 0 no effect, 100 complete control; for Barnyardgrass plant response rating (0 to 100 scale): 500 g ai/ha Preemergence, approx. 10 days
Outline: as §1

[7] = test system: ducksalad (Heteranhera limosa); assay: Test B flooded paddy test, visual plant response rating; details: 250 g ai/ha, Flood, applied to paddy water, 2-leaf stage, evaluated after 13 to 15 days
Outline: (§2)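 Flooded-pot treatment: water 3 cm over the soil, chemical delivered into that water, depth unchanged for the duration. Assessed by eye versus controls following 13–15 greenhouse days; plants were at 2 leaves when dosed.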

[8] = test system: sedge, umbrella (small-flower umbrella sedge, Cyperus difformis); assay: as above; details: 250 g ai/ha, Flood, applied to paddy water, 2-leaf stage, evaluated after 13 to 15 days
Outline: as §2

[9] = test system: barnyardgrass (Echinochloa crus-galli); assay: as above; details: 250 g ai/ha, Flood, applied to paddy water, 2-leaf stage, evaluated after 13 to 15 days
Outline: as §2

rice (Oryza sativa) = assay: as above; details: 250 g ai/ha, Flood, applied to paddy water, 2-leaf stage, evaluated after 13 to 15 days
Outline: as §2

corn (Zea mays) = assay: Test A postemergence, visual plant response rating; details: for Corn plant response rating (0 to 100 scale): 500 g ai/ha, postemergence, 0 is no effect, 100 is complete control; for Corn plant response rating: Postemergence, 125 g ai/ha, 0 to 100 scale (0 no effect, 100 complete control)
Outline: as §1

[10] = test system: Italian ryegrass (Lolium multiflorum); assay: Test A postemergence, visual plant response rating; details: for Ryegrass, Italian plant response rating (0 to 100 scale): 500 g ai/ha, postemergence, 0 is no effect, 100 is complete control; for Ryegrass, Italian plant response rating: Postemergence, 125 g ai/ha, 0 to 100 scale (0 no effect, 100 complete control)
Outline: as §1

[11] = test system: foxtail, giant (giant foxtail, Setaria faberii); assay: Test A postemergence, visual plant response rating; details: for Foxtail, Giant plant response rating (0 to 100 scale): 500 g ai/ha, postemergence, 0 is no effect, 100 is complete control; for Foxtail, Giant plant response rating: Postemergence, 125 g ai/ha, 0 to 100 scale (0 no effect, 100 complete control)
Outline: as §1

[12] = test system: galium (catchweed bedstraw, Galium aparine); assay: Test A postemergence, visual plant response rating; details: for Galium plant response rating (0 to 100 scale): 500 g ai/ha, postemergence, 0 is no effect, 100 is complete control; for Galium plant response rating: Postemergence, 125 g ai/ha, 0 to 100 scale (0 no effect, 100 complete control)
Outline: as §1

kochia (Kochia scoparia) [13] = assay: Test A postemergence, visual plant response rating; details: for Kochia plant response rating (0 to 100 scale): 500 g ai/ha, postemergence, 0 is no effect, 100 is complete control; for Kochia plant response rating: Postemergence, 125 g ai/ha, 0 to 100 scale (0 no effect, 100 complete control)
Outline: as §1

[14] = test system: wheat (Triticum aestivum); assay: Test A postemergence, visual plant response rating; details: for Wheat plant response rating (0 to 100 scale): 500 g ai/ha, postemergence, 0 is no effect, 100 is complete control; for Wheat plant response rating: Postemergence, 125 g ai/ha, 0 to 100 scale (0 no effect, 100 complete control)
Outline: as §1

[15] = test system: pigweed (Amaranthus retroflexus); assay: Test A postemergence, visual plant response rating; details: for Pigweed plant response rating (0 to 100 scale): 500 g ai/ha, postemergence, 0 is no effect, 100 is complete control; for Pigweed plant response rating: Postemergence, 125 g ai/ha, 0 to 100 scale (0 no effect, 100 complete control)
Outline: as §1

[16] = test system: ragweed (common ragweed, Ambrosia elatior); assay: Test A postemergence, visual plant response rating; details: for Ragweed plant response rating (0 to 100 scale): 500 g ai/ha, postemergence, 0 is no effect, 100 is complete control; for Ragweed plant response rating: Postemergence, 125 g ai/ha, 0 to 100 scale (0 no effect, 100 complete control)
Outline: as §1

[17] = test system: barnyardgrass (Echinochloa crus-galli); assay: Test A postemergence, visual plant response rating; details: for Barnyardgrass plant response rating (0 to 100 scale): 500 g ai/ha, postemergence, 0 is no effect, 100 is complete control; for Barnyardgrass plant response rating: Postemergence, 125 g ai/ha, 0 to 100 scale (0 no effect, 100 complete control)
Outline: as §1

[18] = test system: blackgrass (Alopecurus myosuroides); assay: Test A postemergence, visual plant response rating; details: for Blackgrass plant response rating (0 to 100 scale): 500 g ai/ha, postemergence, 0 is no effect, 100 is complete control; for Blackgrass plant response rating: Postemergence, 125 g ai/ha, 0 to 100 scale (0 no effect, 100 complete control)
Outline: as §1

SMILES	Ryegrass, Italian plant response rating [1]	Ryegrass, Italian plant response rating (0 to 100 scale) [1]	Foxtail, Giant plant response rating [2]	Foxtail, Giant plant response rating (0 to 100 scale) [2]	Kochia plant response rating (kochia (Kochia scoparia) [3])	Kochia plant response rating (0 to 100 scale) (kochia (Kochia scoparia) [3])	Pigweed plant response rating [4]	Pigweed plant response rating (0 to 100 scale) [4]	Ragweed plant response rating [5]	Ragweed plant response rating (0 to 100 scale) [5]	Barnyardgrass plant response rating [6]	Barnyardgrass plant response rating (0 to 100 scale) [6]	Plant response rating, Ducksalad (0 to 100 scale, 0 is no effect, 100 is complete control) [7]	Plant response rating, Sedge, Umbrella (0 to 100 scale, 0 is no effect, 100 is complete control) [8]	Plant response rating, Barnyardgrass (0 to 100 scale, 0 is no effect, 100 is complete control) [9]	Plant response rating, Rice (0 to 100 scale, 0 is no effect, 100 is complete control) (rice (Oryza sativa))	Corn plant response rating (0 to 100 scale) (corn (Zea mays))	Corn plant response rating (corn (Zea mays))	Ryegrass, Italian plant response rating (0 to 100 scale) [10]	Ryegrass, Italian plant response rating [10]	further results
CON=C(c1c(O)c(C)nn(C)c1=O)c1ccc(F)c2ccccc12 [Compound 51]	70	100	70	100	10	80	90	90	90	100	60	80	75	65	15	15	20	10	100	90	Foxtail, Giant plant response rating (0 to 100 scale) [11]: 90; Foxtail, Giant plant response rating [11]: 50; Galium plant response rating (0 to 100 scale) [12]: 100; Galium plant response rating [12]: 100; Kochia plant response rating (0 to 100 scale) (kochia (Kochia scoparia) [13]): 90; Kochia plant response rating (kochia (Kochia scoparia) [13]): 80; Wheat plant response rating (0 to 100 scale) [14]: 90; Wheat plant response rating [14]: 70; Pigweed plant response rating (0 to 100 scale) [15]: 90; Pigweed plant response rating [15]: 90; Ragweed plant response rating (0 to 100 scale) [16]: 100; Ragweed plant response rating [16]: 80; Barnyardgrass plant response rating (0 to 100 scale) [17]: 80; Barnyardgrass plant response rating [17]: 30; Blackgrass plant response rating (0 to 100 scale) [18]: 100; Blackgrass plant response rating [18]: 90
CO/N=C(\c1cscc1C)c1c(O)c(C)nn(C)c1=O [Compound 52]	0	40	0	10	0	20	60	80	0	30	0	10	0	0	0	0	0	0	80	10	Foxtail, Giant plant response rating (0 to 100 scale) [11]: 20; Foxtail, Giant plant response rating [11]: 10; Galium plant response rating (0 to 100 scale) [12]: 80; Galium plant response rating [12]: 70; Kochia plant response rating (0 to 100 scale) (kochia (Kochia scoparia) [13]): 60; Kochia plant response rating (kochia (Kochia scoparia) [13]): 20; Wheat plant response rating (0 to 100 scale) [14]: 0; Wheat plant response rating [14]: 0; Pigweed plant response rating (0 to 100 scale) [15]: 90; Pigweed plant response rating [15]: 70; Ragweed plant response rating (0 to 100 scale) [16]: 90; Ragweed plant response rating [16]: 60; Barnyardgrass plant response rating (0 to 100 scale) [17]: 30; Barnyardgrass plant response rating [17]: 10; Blackgrass plant response rating (0 to 100 scale) [18]: 30; Blackgrass plant response rating [18]: 0
CO/N=C(\c1ccc(C)o1)c1c(O)c(C)nn(C)c1=O [Compound 53]	0	0	0	0	0	0	0	0	0	0	0	0	0	0	0	0	30	0	90	20	Foxtail, Giant plant response rating (0 to 100 scale) [11]: 90; Foxtail, Giant plant response rating [11]: 10; Galium plant response rating (0 to 100 scale) [12]: 0; Galium plant response rating [12]: 0; Kochia plant response rating (0 to 100 scale) (kochia (Kochia scoparia) [13]): 0; Kochia plant response rating (kochia (Kochia scoparia) [13]): 0; Wheat plant response rating (0 to 100 scale) [14]: 0; Wheat plant response rating [14]: 0; Pigweed plant response rating (0 to 100 scale) [15]: 0; Pigweed plant response rating [15]: 0; Ragweed plant response rating (0 to 100 scale) [16]: 0; Ragweed plant response rating [16]: 0; Barnyardgrass plant response rating (0 to 100 scale) [17]: 70; Barnyardgrass plant response rating [17]: 10; Blackgrass plant response rating (0 to 100 scale) [18]: 40; Blackgrass plant response rating [18]: 10
